How the values were obtained:
M14 = assay: Growth inhibition of human M14 cells incubated for 48 hrs by sulforhodamine B assay; assay type: functional; details: M14, 48 h
OVCAR-8 = assay: Growth inhibition of human OVCAR8 cells incubated for 48 hrs by sulforhodamine B assay; assay type: functional; details: OVCAR-8, 48 h
NCI-H23 = assay: Growth inhibition of human NCI-H23 cells incubated for 48 hrs by sulforhodamine B assay; assay type: functional; details: NCI-H23, 48 h
NCI-H522 = assay: Growth inhibition of human NCI-H522 cells incubated for 48 hrs by sulforhodamine B assay; assay type: functional; details: NCI-H522, 48 h
UO-31 = assay: Growth inhibition of human UO31 cells incubated for 48 hrs by sulforhodamine B assay; assay type: functional; details: UO-31, 48 h
SW-620 = assay: Growth inhibition of human SW620 cells incubated for 48 hrs by sulforhodamine B assay; assay type: functional; details: SW-620, 48 h
RXF 393 = assay: Growth inhibition of human RXF393 cells incubated for 48 hrs by sulforhodamine B assay; assay type: functional; details: RXF 393, 48 h
WISH = assay: Cytotoxicity against human WISH cells assessed as reduction in cell viability after 24 hrs by MTT assay; assay type: cell-based
KM12 = assay: Growth inhibition of human KM12 cells incubated for 48 hrs by sulforhodamine B assay; assay type: functional; details: KM12, 48 h
NCI-H460 = assay: Growth inhibition of human NCI-H460 cells incubated for 48 hrs by sulforhodamine B assay; assay type: functional; details: NCI-H460, 48 h
HL-60(TB) = assay: Growth inhibition of human HL-60(TB) cells incubated for 48 hrs by sulforhodamine B assay; assay type: functional; details: HL-60, 48 h
OVCAR-3 = assay: Growth inhibition of human OVCAR3 cells incubated for 48 hrs by sulforhodamine B assay; assay type: functional; details: OVCAR-3, 48 h
COLO 205 = assay: Growth inhibition of human COLO205 cells incubated for 48 hrs by sulforhodamine B assay; assay type: functional; details: COLO 205, 48 h
786-0 = assay: Growth inhibition of human 786-O cells incubated for 48 hrs by sulforhodamine B assay; assay type: functional; details: 786-0, 48 h
MDA-MB-468 = assay: Growth inhibition of human MDA-MB-468 cells incubated for 48 hrs by sulforhodamine B assay; assay type: functional; details: MDA-MB-468, 48 h
CAKI-1 = assay: Growth inhibition of human Caki1 cells incubated for 48 hrs by sulforhodamine B assay; assay type: functional; details: CAKI-1, 48 h
SK-MEL-5 = assay: Growth inhibition of human SK-MEL-5 cells incubated for 48 hrs by sulforhodamine B assay; assay type: functional; details: SK-MEL-5, 48 h
SNB-19 = assay: Growth inhibition of human SNB19 cells incubated for 48 hrs by sulforhodamine B assay; assay type: functional; details: SNB-19, 48 h
MOLT-4 = assay: Growth inhibition of human MOLT4 cells incubated for 48 hrs by sulforhodamine B assay; assay type: functional; details: MOLT-4, 48 h
IGROV-1 = assay: Growth inhibition of human IGROV1 cells incubated for 48 hrs by sulforhodamine B assay; assay type: functional; details: IGROV-1, 48 h
SF-268 = assay: Growth inhibition of human SF268 cells incubated for 48 hrs by sulforhodamine B assay; assay type: functional; details: SF-268, 48 h
Hs-578T = assay: Growth inhibition of human Hs 578T cells incubated for 48 hrs by sulforhodamine B assay; assay type: functional
SN12C = assay: Growth inhibition of human SN12C cells incubated for 48 hrs by sulforhodamine B assay; assay type: functional
Malme-3M = assay: Growth inhibition of human MALME-3M cells incubated for 48 hrs by sulforhodamine B assay; assay type: functional
UACC-62 = assay: Growth inhibition of human UACC62 cells incubated for 48 hrs by sulforhodamine B assay; assay type: functional; details: UACC-62, 48 h
SK-MEL-28 = assay: Growth inhibition of human SK-MEL-28 cells incubated for 48 hrs by sulforhodamine B assay; assay type: functional; details: SK-MEL-28, 48 h
SR = assay: Growth inhibition of human SR cells incubated for 48 hrs by sulforhodamine B assay; assay type: functional
HOP-62 = assay: Growth inhibition of human HOP62 cells incubated for 48 hrs by sulforhodamine B assay; assay type: functional; details: HOP-62, 48 h
OVCAR-5 = assay: Growth inhibition of human OVCAR5 cells incubated for 48 hrs by sulforhodamine B assay; assay type: functional; details: OVCAR-5, 48 h
SF-539 = assay: Growth inhibition of human SF539 cells incubated for 48 hrs by sulforhodamine B assay; assay type: functional; details: SF-539, 48 h
TK-10 = assay: Growth inhibition of human TK10 cells incubated for 48 hrs by sulforhodamine B assay; assay type: functional; details: TK-10, 48 h
HCT-116 = assay: Growth inhibition of human HCT116 cells incubated for 48 hrs by sulforhodamine B assay; assay type: functional; details: HCT-116, 48 h
ACHN = assay: Growth inhibition of human ACHN cells incubated for 48 hrs by sulforhodamine B assay; assay type: functional
DU-145 = assay: Growth inhibition of human DU145 cells incubated for 48 hrs by sulforhodamine B assay; assay type: functional; details: DU-145, 48 h
WI-38 = assay: Cytotoxicity against human WI38 cells assessed as reduction in cell viability after 24 hrs by MTT assay; assay type: cell-based; details: WI-38, 24 h
SK-OV-3 = assay: Growth inhibition of human SKOV3 cells incubated for 48 hrs by sulforhodamine B assay; assay type: functional; details: SK-OV-3, 48 h
HOP-92 = assay: Growth inhibition of human HOP92 cells incubated for 48 hrs by sulforhodamine B assay; assay type: functional; details: HOP-92, 48 h
RPMI-8226 = assay: Growth inhibition of human RPMI8226 cells incubated for 48 hrs by sulforhodamine B assay; assay type: functional; details: RPMI-8226, 48 h
HCT-15 = assay: Growth inhibition of human HCT15 cells incubated for 48 hrs by sulforhodamine B assay; assay type: functional; details: HCT-15, 48 h
BT-549 = assay: Growth inhibition of human BT549 cells incubated for 48 hrs by sulforhodamine B assay; assay type: functional; details: BT-549, 48 h
[1] = Growth inhibition of human NCI60 cells at 10 uM after 48 hrs by SRB assay relative to control; values are per cent of control; details: NCI60, 48 h
MCF7 = assay: Growth inhibition of human MCF7 cells incubated for 48 hrs by sulforhodamine B assay; assay type: functional; details: MCF7, 48 h
UACC-257 = assay: Growth inhibition of human UACC257 cells incubated for 48 hrs by sulforhodamine B assay; assay type: functional; details: UACC-257, 48 h
CCRF-CEM = assay: Growth inhibition of human CCRF-CEM cells incubated for 48 hrs by sulforhodamine B assay; assay type: functional
A498 = assay: Growth inhibition of human A498 cells incubated for 48 hrs by sulforhodamine B assay; assay type: functional; details: A498, 48 h
Escherichia coli = assay: Induction of Escherichia coli genomic DNA cleavage after 1 hr by agarose gel electrophoresis method
SNB-75 = assay: Growth inhibition of human SNB75 cells incubated for 48 hrs by sulforhodamine B assay; assay type: functional; details: SNB-75, 48 h
NCI-H226 = assay: Growth inhibition of human NCI-H226 cells incubated for 48 hrs by sulforhodamine B assay; assay type: functional; details: NCI-H226, 48 h

## N=C(N)c1ccc(-c2ccc(-c3ccccc3)s2)cc1F
M14
  GI50: 2120 nM
OVCAR-8
  GI50: 11300 nM
NCI-H23
  GI50: 11600 nM
NCI-H522
  GI50: 6800 nM
UO-31
  GI50: 2680 nM
SW-620
  GI50: 4050 nM
RXF 393
  GI50: 7010 nM
WISH
  IC50: 82200 nM
KM12
  GI50: 4410 nM
NCI-H460
  GI50: 3690 nM
HL-60(TB)
  GI50: 2140 nM
OVCAR-3
  GI50: 8900 nM
COLO 205
  GI50: 1820 nM
786-0
  GI50: 6020 nM
MDA-MB-468
  GI50: 2040 nM
CAKI-1
  GI50: 6790 nM
SK-MEL-5
  GI50: 3430 nM
SNB-19
  GI50: 11700 nM
MOLT-4
  GI50: 4400 nM
IGROV-1
  GI50: 5290 nM
SF-268
  GI50: 11200 nM
Hs-578T
  GI50: 10900 nM
SN12C
  GI50: 8010 nM
Malme-3M
  GI50: 3250 nM
UACC-62
  GI50: 10300 nM
SK-MEL-28
  GI50: 8230 nM
SR
  GI50: 3110 nM
HOP-62
  GI50: 10500 nM
OVCAR-5
  GI50: 10900 nM
SF-539
  GI50: 4740 nM
TK-10
  GI50: 10700 nM
HCT-116
  GI50: 3260 nM
ACHN
  GI50: 6560 nM
DU-145
  GI50: 11300 nM
WI-38
  IC50: 91500 nM
SK-OV-3
  GI50: 10200 nM
HOP-92
  GI50: 1310 nM
RPMI-8226
  GI50: 2780 nM
HCT-15
  GI50: 4620 nM
BT-549
  GI50: 10700 nM
[1]
  growth percent at 10 µM: -79.2%
MCF7
  GI50: 3170 nM
UACC-257
  GI50: 2180 nM
CCRF-CEM
  GI50: 3200 nM
A498
  GI50: 12800 nM
Escherichia coli
  Activity: Dose-dependent effect
SNB-75
  GI50: 10500 nM
NCI-H226
  GI50: 12900 nM

## COc1cc(OC)cc(-c2ccc(-c3ccc(C(=N)N)c(F)c3)s2)c1
M14
  GI50: 184 nM
OVCAR-8
  GI50: 1200 nM
NCI-H23
  GI50: 1430 nM
NCI-H522
  GI50: 1200 nM
UO-31
  GI50: 473 nM
SW-620
  GI50: 212 nM
RXF 393
  GI50: 449 nM
WISH
  IC50: 115000 nM
KM12
  GI50: 352 nM
NCI-H460
  GI50: 195 nM
HL-60(TB)
  GI50: 229 nM
OVCAR-3
  GI50: 815 nM
COLO 205
  GI50: 208 nM
786-0
  GI50: 174 nM
MDA-MB-468
  GI50: 182 nM
CAKI-1
  GI50: 233 nM
SK-MEL-5
  GI50: 956 nM
SNB-19
  GI50: 1030 nM
MOLT-4
  GI50: 326 nM
IGROV-1
  GI50: 484 nM
SF-268
  GI50: 1150 nM
Hs-578T
  GI50: 1470 nM
SN12C
  GI50: 712 nM
Malme-3M
  GI50: 195 nM
UACC-62
  GI50: 1440 nM
SK-MEL-28
  GI50: 176 nM
SR
  GI50: 224 nM
HOP-62
  GI50: 1610 nM
OVCAR-5
  GI50: 207 nM
SF-539
  GI50: 165 nM
TK-10
  GI50: 1780 nM
HCT-116
  GI50: 173 nM
ACHN
  GI50: 181 nM
DU-145
  GI50: 426 nM
WI-38
  IC50: 123000 nM
SK-OV-3
  GI50: 1640 nM
HOP-92
  GI50: 665 nM
RPMI-8226
  GI50: 246 nM
HCT-15
  GI50: 196 nM
BT-549
  GI50: 1370 nM
[1]
  growth percent at 10 µM: -77.8%
MCF7
  GI50: 194 nM
UACC-257
  GI50: 1850 nM
CCRF-CEM
  GI50: 306 nM
A498
  GI50: 1330 nM
Escherichia coli
  Activity: Dose-dependent effect
SNB-75
  GI50: 1300 nM
NCI-H226
  GI50: 1730 nM

## N=C(N)c1ccc(-c2ccc(-c3ccc(Cl)cc3)s2)cc1
M14
  GI50: 172 nM
OVCAR-8
  GI50: 223 nM
NCI-H23
  GI50: 190 nM
NCI-H522
  GI50: 186 nM
UO-31
  GI50: 175 nM
SW-620
  GI50: 177 nM
RXF 393
  GI50: 157 nM
WISH
  IC50: 146000 nM
KM12
  GI50: 196 nM
NCI-H460
  GI50: 193 nM
HL-60(TB)
  GI50: 214 nM
OVCAR-3
  GI50: 194 nM
COLO 205
  GI50: 203 nM
786-0
  GI50: 178 nM
MDA-MB-468
  GI50: 173 nM
CAKI-1
  GI50: 167 nM
SK-MEL-5
  GI50: 204 nM
SNB-19
  GI50: 194 nM
MOLT-4
  GI50: 207 nM
SF-268
  GI50: 184 nM
Hs-578T
  GI50: 200 nM
SN12C
  GI50: 180 nM
Malme-3M
  GI50: 219 nM
UACC-62
  GI50: 178 nM
SK-MEL-28
  GI50: 176 nM
SR
  GI50: 249 nM
OVCAR-5
  GI50: 169 nM
SF-539
  GI50: 171 nM
TK-10
  GI50: 220 nM
HCT-116
  GI50: 170 nM
ACHN
  GI50: 180 nM
DU-145
  GI50: 185 nM
WI-38
  IC50: 131000 nM
SK-OV-3
  GI50: 246 nM
HOP-92
  GI50: 156 nM
RPMI-8226
  GI50: 194 nM
HCT-15
  GI50: 171 nM
BT-549
  GI50: 1730 nM
[1]
  growth percent at 10 µM: -70.5%
MCF7
  GI50: 171 nM
UACC-257
  GI50: 310 nM
CCRF-CEM
  GI50: 200 nM
A498
  GI50: 191 nM
Escherichia coli
  Activity: Dose-dependent effect
SNB-75
  GI50: 157 nM
NCI-H226
  GI50: 451 nM
